Consider five compounds from ChEMBL document CHEMBL1153894, “Chloroquine-astemizole hybrids with potent in vitro and in vivo antiplasmodial activity” (Bioorg Med Chem Lett, 2009).

Where only a bound is given, the exact number is not on record here.

Data set [1] deals with Plasmodium falciparum. As to the kind of experiment: Antiplasmodial activity against chloroquine-resistant Plasmodium falciparum K1. The format is functional, organism-based.
Data set [2] relates to L6. In words: Cytotoxicity against rat L6 cells. It counts as cell-based.
Data set [3] is described as follows: Selectivity ratio of cytotoxicity for rat L6 cells to IC50 for Plasmodium falciparum K1. Particulars: read-out: FC. The format is cell-based.
Data set [4] has as its system Plasmodium berghei. In words: Antiplasmodial activity as mean survival time against Plasmodium berghei infected mice (Mus musculus) at 4 x 10 mg/kg intraperitoneal dose. The format is functional.
Data set [5] deals with Plasmodium berghei. In words: Antiplasmodial activity as mean survival time against Plasmodium berghei infected mice (Mus musculus) at 4 x 50 mg/kg intraperitoneal dose. It counts as functional.
Data set [6] has as its system Plasmodium berghei. As to the kind of experiment: Antiplasmodial activity as mean survival time against Plasmodium berghei infected mice (Mus musculus) at 4 x 20 mg/kg intraperitoneal dose. It counts as functional.
For data set [7], the system named is Plasmodium berghei. In words: Antiplasmodial activity as reduced parasitaemia against Plasmodium berghei infected mice (Mus musculus) at 4 x 10 mg/kg intraperitoneal dose. Further details: scale not given: the % may be the effect or the level left. The format is functional.
The test system of data set [8] is Plasmodium berghei. As to the kind of experiment: Antiplasmodial activity as reduced parasitaemia against Plasmodium berghei infected mice (Mus musculus) at 4 x 50 mg/kg intraperitoneal dose. Further details: scale not given: the % may be the effect or the level left. The format is functional.
For data set [9], the system named is Plasmodium berghei. In words: Antiplasmodial activity as reduced parasitaemia against Plasmodium berghei infected mice (Mus musculus) at 4 x 20 mg/kg intraperitoneal dose. It counts as functional. On the set-up: scale not given: the % may be the effect or the level left.
In data set [10] the test system is Plasmodium falciparum. In words: Antiplasmodial activity against chloroquine-resistant Plasmodium falciparum K1 at 5 uM. It counts as functional.

Take `Fc1ccc(Cn2c(N3CCN(CCCNc4ccnc5cc(Cl)ccc45)CC3)nc3ccccc32)cc1`: the IC50 in data set [1] stood at 23 nM. The compound also gave an Activity in data set [2] of 6.86 µM. Also, the selectivity ratio in data set [3] was more than 100.

For the compound `Fc1ccc(Cn2c(N3CCC(Nc4ccnc5cc(Cl)ccc45)CC3)nc3ccccc32)cc1`, half-maximal inhibition in data set [1] (IC50) required 64 nM. The compound further showed an Activity in data set [2] of 9.1 µM. In addition, the selectivity ratio in data set [3] is more than 100.

Take `Fc1ccc(Cn2c(NC3CCN(c4ccnc5cc(Cl)ccc45)CC3)nc3ccccc32)cc1`: in data set [1], the IC50 came out at 37 nM. In addition, the Activity was found to be 8.8 µM in [2], 99% in data set [7], 99% in data set [8] and 80% in data set [9]. Also, the results for the MST in [4], in [5] and in [6] were 17 days, 13 days and 8 days, respectively. Besides, in data set [3], the selectivity ratio is more than 100.

In data set [1], `Fc1ccc(Cn2c(N3CCN(c4ccnc5cc(Cl)ccc45)CC3)nc3ccccc32)cc1` registered an IC50 of 610 nM. For the same compound, in data set [2], the Activity worked out at 126 µM. Moreover, the selectivity ratio in data set [3] was more than 100.

Take `COc1ccc(CCN2CCC(Nc3nc4ccccc4n3Cc3ccc(F)cc3)CC2)cc1` [ASTEMIZOLE]: the Activity in data set [10] was 50%. Moreover, the selectivity ratio in data set [3] is more than 100.

In general, IC50 refers to the concentration that gives 50% inhibition.
